The results in this text go back to PubChem BioAssay (NCI).

“And” between values parts separate entries of the source, which are not always exact repeats. Equal values may be shown once.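 Dose response: 5 concentrations. Exposure: 48 h. Format: 96-well plates. Endpoint: linear interpolation; highest concentration if not reached. At the GI50, growth is halved. At the TGI there is no net growth.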

What all share (experiment): NCI-60 cell line screen, 48 h
Experiment [1] concerns HCT-116 colon.
The subject of experiment [2] is HL-60(TB) leukemia.
The subject of experiment [3] is MCF7 breast.
Experiment [4] has as its system MDA-MB-435.
For experiment [5], the system named is OVCAR-8 ovarian.
Experiment [6] has as its system LOX IMVI melanoma.
Experiment [7] relates to SK-OV-3 ovarian.
In experiment [8] the test system is OVCAR-3 ovarian.
For experiment [9], the system named is CCRF-CEM leukemia.
In experiment [10] the test system is MOLT-4 leukemia.

Take `Oc1[nH]c2ccccc2c1/C=c1/ccc2c(c1)N=C(c1ccc(C(F)(F)F)cc1)N=2`: the GI50 in experiment [1] is 1.37 µM; in [2] it was 2.26 µM; in experiment [3], 2.98 µM; in experiment [4], 1.17 µM; in experiment [5], 5.94 µM; in [6] it was 1.82 µM. The GI50 in experiment [7] is 12.1 µM; in experiment [8], 0.74 µM; in experiment [9] it was 1.65 µM; in experiment [10] it was 1.67 µM. Besides, the TGI in [1] came to 12.3 µM; in experiment [2], 5.27 µM; in experiment [3], 12.9 µM; in [4] it was 5.69 µM; in [5], 20.3 µM; in experiment [6], 5.37 µM. The TGI in [7] worked out at 25 µM; in experiment [8] it was 3.89 µM; in [9], 5.05 µM; in [10], 3.94 µM.
Consider `CCCc1nc(Cl)c(Cl)c(Cl)n1`, for which the TGI in [1] was 26.8 µM; in experiment [2] it was 37.2 µM; in experiment [3], more than 78.6 µM; in [4] it was more than 62 µM; in [5], 51 µM; in [6] it was 17.7 µM. Besides, the TGI in experiment [7] is more than 100 µM; in [8], 18.7 µM; in [9] it was more than 44.2 µM; in experiment [10], 46.9 µM.
`O=C1NC2(CCCCC2)C(=O)N1CCN(CCCl)CCCl`: the GI50 in [1] is more than 25 µM; in [2], 11.8 µM; in experiment [3] it was more than 25 µM; in experiment [5] it was more than 25 µM; in experiment [6], more than 25 µM; in experiment [7], more than 25 µM. Besides, the GI50 is more than 244 µM in [8], 12.2 µM in experiment [9] and 7.1 µM in experiment [10]. In addition, the TGI in experiment [1] is more than 250 µM; in experiment [2], 25 µM and 183 µM; in experiment [3] it was more than 250 µM; in [4], more than 25 µM; in experiment [5], > 25 µM and 173 µM; in [6] it was more than 250 µM. The TGI in [7] was > 25 µM and 250 µM; in experiment [8], more than 250 µM; in experiment [9], 25 µM and 212 µM; in experiment [10], 22.5 µM and 196 µM.
As for `CC[C@H](C)[C@H](NC(=O)[C@H]1CCCCN1C)C(=O)N(C)[C@H](C[C@@H](OC(C)=O)c1cccc(C(=O)N[C@@H](Cc2ccccc2)C[C@H](C)C(=O)O)n1)C(C)C`, the GI50 is 0.00225 µM and 0.0025 µM in experiment [1]; 0.00111 µM and < 0.0025 µM in [2]; 0.000341 µM and 0.0025 µM in [3]; 0.000279 µM and < 0.0025 µM in [4]; 0.00542 µM and 0.0025 µM in experiment [5]; 0.00168 µM and 0.0025 µM in experiment [6]. Moreover, the GI50 in experiment [7] was 0.00348 µM and 0.0025 µM; in experiment [8], 0.000389 µM and < 0.0025 µM; in experiment [9], 0.000818 µM and 0.0025 µM; in [10], 0.00364 µM and 0.0025 µM. The TGI in experiment [1] is 4.16 µM; in experiment [2], 0.00592 µM and < 0.0025 µM; in experiment [3] it was more than 25 µM; in experiment [4], 0.00152 µM and < 0.0025 µM; in experiment [5], more than 25 µM; in experiment [6], more than 25 µM. Further, the TGI in experiment [7] was more than 25 µM; in [8] it was 0.0165 µM and < 0.0025 µM; in experiment [9], more than 25 µM; in experiment [10], more than 25 µM.
Consider `Cc1ccc(Cl)c(NS(=O)(=O)c2ccc(-c3cnc(C4CC4)o3)cc2)c1`, for which the GI50 in experiment [1] was 0.0537 µM; in experiment [2], 0.0451 µM; in experiment [3] it was 0.0407 µM; in [4], 0.0382 µM; in [5], 0.258 µM; in experiment [6] it was 0.226 µM. In addition, the GI50 in experiment [7] is 3.31 µM; in experiment [8], 0.0674 µM; in experiment [9] it was 0.0777 µM; in [10], 0.166 µM. The TGI was more than 36.8 µM in experiment [1]; 25.9 µM in [3]; 2.23 µM in [4]; more than 58.9 µM in experiment [5]; 18.5 µM in experiment [6]; 68.8 µM in [7]. The TGI is 4.17 µM in [8], more than 100 µM in experiment [9] and more than 48.3 µM in [10].
With `Nc1ncc(-c2ccc3ncnc(N4CCc5ccc(Cl)cc54)c3c2)cc1C(F)(F)F`, the GI50 in experiment [1] was 2.53 µM; in [2], 0.723 µM; in [3], 0.375 µM; in [4] it was 1.68 µM; in experiment [5] it was 2.15 µM; in experiment [6], 0.734 µM. Also, the GI50 in experiment [7] is 1.3 µM; in [8], 1.05 µM; in experiment [9], 3.87 µM; in experiment [10], 1.63 µM. Besides, the TGI in [1] is 16.6 µM; in [2] it was more than 100 µM; in experiment [3] it was 14.9 µM; in experiment [4] it was 13.5 µM; in [5], 22.6 µM; in [6], 11.9 µM. Further, the TGI in experiment [7] was 7.04 µM; in experiment [8], 15.1 µM; in [9], more than 100 µM; in [10], more than 100 µM.
Consider `NC(Cc1c[nH]c2ccc([N+](=O)[O-])cc12)C(=O)O` (centres undefined), for which the TGI in [1], in [2], in experiment [3], in experiment [4], in [5] and in experiment [6] was more than 100 µM throughout. Also, the TGI in experiment [7], in experiment [8], in [9] and in experiment [10] was more than 100 µM each time.
In the case of `C#CC1(O)C(COP(=O)(O)OCC2OC(n3cc(F)c(=O)[nH]c3=O)CC2O)OC(n2ccc(N)nc2=O)C1O` (centres undefined), the GI50 in [1] is less than 0.01 µM; in experiment [2], less than 0.011 µM; in experiment [3], less than 0.01 µM; in [4] it was less than 0.01 µM; in experiment [5], less than 0.01 µM; in experiment [6], less than 0.01 µM. The GI50 in experiment [7] was more than 100 µM; in [8] it was less than 0.01 µM; in experiment [9], less than 0.01 µM; in experiment [10], less than 0.01 µM. Moreover, the TGI was more than 100 µM in [1]; more than 100 µM in experiment [3]; 0.181 µM in experiment [4]; more than 100 µM in experiment [7]; 0.746 µM in [8]; 0.0124 µM in experiment [10].
